This is an account of results in patent publication US20230389545A1, “ANTIMICROBIAL COMPOSITION” (The Procter & Gamble Company, priority 2022, published 2023).

For one data set, the system named is Gram Negative. Put plainly: Surface Antimicrobial Kill Testing Method, activity normalized to triclosan internal standard. In kind it is cell-based. The note with it: for antimicrobial benefit (in words, comment on Table 2B): DPGME / Surfonic L24-9 composition; for antimicrobial activity (in words, comment on Table 1B): composition with nonionic surfactant and non-aqueous solvent. As to the method:
Inoculum is prepared by streaking microorganism onto a Tryptic Soy Agar (TSA) plate and incubating for 24 h at 33° C. Plated bacteria is resuspended in saline until the transmittance percentage falls within the accepted range for ˜10^8 cfu/mL. For K. pneumonia (Kp) and P. aeruginosa (Pa), this is 31.00-33.00% T. For S. aureus (Sa) this is 23.00-25.00% T. A 10× concentration is made by spinning down the prepared inoculum, removing the supernatant saline from the bacterial pellet, then resuspending the pellet in 1/10th of the original volume of saline. The final inoculum is prepared with 5% of “soil” in the form of Fetal Bovine Serum (FBS).
A 18×18 mm sterile glass coverslip is placed into an appropriate container (e.g. petri dish). 20 μL of prepared inoculum is added to the glass coverslip. Inoculum is then air-dried for 30 minutes in a 36° C. incubator. After drying, 40 μL of test sample is added on top of the dried inoculum. This is incubated at room temperature for the desired contact time. 5 mL of neutralizing media (Modified Letheen Broth+Tween+Lecithin (MLBTL)) is added to the coverslip and shaken on an orbital shaker for 5 minutes to ensure proper neutralization and extraction. Viability is then assessed of the neutralized and extracted sample by traditional/alternative microbiological techniques.
The normalized antimicrobial activity reported in the performance examples below was generated from detection time data obtained as described in the Surface Antimicrobial Kill Test Method. To account for day-to-day variability an internal standard was tested with each series. […] Normalized activity is reported following the equation 1 below.
Normalized Activity=(αΔDT−βΔDT)/(γΔDT−βΔDT) equation 1.
where, αΔDT is the average detection time of the antimicrobial compound, and γΔDT is the average detection time of the reference triclosan internal standard, and βΔDT is the average detection time of the background unperturbed bacteria.
Modified amino acids of the present disclosure were tested as aqueous solutions in the Surface Antimicrobial Kill Testing Method above. To prepare test solutions modified amino acids were first dissolved in the appropriate solvent. Second the selected surfactant is added to the mixture. After vortex (1 min, Vortex-2 Genie, vortex speed 8) mixing, the samples were then diluted with […] of reverse osmosis water (RO water, Millipore Direct-Q™, pH 6). The aqueous solution was then vortexed (1 min, Vortex-2 Genie, vortex speed 8), to which the second ½ portion of water is added. The pH of the solution was then adjusted to the target pH using either 1N HCl, Glacial Acetic Acid, or 1N NaOH. The final solution was then vortexed (1 min, Vortex-2 Genie, vortex speed 8). An example batch sheet is provided below in Table 1.
After treatment, microbial growth is referenced and reported to a triclosan sample and unaltered microbes according to the Normalization of Antimicrobial Activity provided above.

Data set [1] in a line: Stability of the isolated solid followed by 1H NMR. In kind it is physicochemical. As to conditions: storage.

`CCCCCC(CCC)COC(=O)[C@@H](N)Cc1ccc(O)cc1` (stereo partly shown) [Synthetic Example 7]: the “antimicrobial benefit (in words, comment on Table 2B)” value (from here on “antimicrobial benefit”) in the data set on Gram Negative is “antimicrobial benefit over the solvent/surfactant alone and over Comparative Example C2”. Besides, the “stability of the independent solid by 1H NMR” value (from here on “stability”) in data set [1] is “stable for several months”.

Regarding `CC(C)(C)OC(=O)[C@@H](N)Cc1c[nH]c2ccccc12` [Synthetic Example 1, L-tryptophan tert-butyl ester], the “antimicrobial activity (in words, comment on Table 1B)” value in the data set with Gram Negative is “proved to be antimicrobial”. In data set [1], the “stability” value was “stable for several months”.

For the molecule `CC/C=C\CCCCCOC(=O)[C@@H](N)Cc1ccc(O)cc1` [Synthetic Example 6], the “antimicrobial benefit” value in the data set on Gram Negative is “antimicrobial benefit over the solvent/surfactant alone and over Comparative Example C2”. Also, in data set [1], the “stability” value was “stable for several months”.

As to `CCCCCCCCOC(=O)[C@@H](N)Cc1c[nH]c2ccccc12` [Synthetic Example 3], the “antimicrobial activity (in words, comment on Table 1B)” value in the data set with Gram Negative is on record as “highest antimicrobial activity”. Also, the “stability” value in data set [1] is on record as “stable for several months”.

As to `CCCCCCCCCCCCOC(=O)[C@@H](N)Cc1c[nH]c2ccccc12` [Synthetic Example 4], the “stability” value in data set [1] was “stable for several months”.

As to `CCCCCCCCOC(=O)[C@@H](N)Cc1ccc(O)cc1` [Synthetic Example 5], the “antimicrobial benefit” value with Gram Negative was “antimicrobial benefit over the solvent/surfactant alone and over Comparative Example C2”. Besides, the “antimicrobial efficacy versus pH (in words, comment on Table 3)” value in the data set with Gram Negative (composition pH of about 2 to less than about pH 9) is “improved antimicrobial efficacy”. Also, in the data set with Gram Negative (with non-ionic and amphoteric surfactants, isotropic solutions), the “microbial activity with surfactants (in words, comment on Table 4)” value is listed as “improved microbial activity over the aqueous solution of the modified amino acid alone”. The “stability” value in data set [1] is on record as “stable for several months”.
